Consider 4 compounds from ChEMBL document CHEMBL3102851, “Trinorditerpenes from the roots of Flueggea virosa” (Bioorg Med Chem Lett, 2014).

Molecules are shown by their SMILES. pEC50, pIC50: −log10 of the molar value. Where only a bound is given, the exact number is not on record here.

One test relates to Hepatitis C virus. Put plainly: Antiviral activity against HCV infected in human Huh7.5 cells. The format is functional, organism-based, Hepacivirus hominis. The settings on record: Huh-7.
Test [1] can be described thus: Antiinflammatory activity in human neutrophils assessed as FMLP/cytochalasin B-induced superoxide anion generation after 5 mins by spectrophotometry. The format is functional, cell-based. The settings on record: Neutrophil.
The nature of test [2]: Cytotoxicity against human Huh7.5 cells. The format is cell-based. Particulars: Huh-7.
Test [3] is described as follows: Antiinflammatory activity in human neutrophils assessed as FMLP/cytochalasin B-induced elastase release after 5 mins by spectrophotometry. Format: functional, cell-based. Particulars: Neutrophil.

Consider `Cc1cc2ccc3c(c2cc1O)CCC(=O)C3(C)C`, for which the pEC50 with Hepatitis C virus was 4.89. For the same compound, the figures for the pIC50 in test [1], in test [2] and in test [3] were 5.36, 4.57 and 5.37, respectively.
For `COc1cc2c3c(ccc2cc1C)C(C)(C)C(O)CC3` (racemic), in that order: 4.63, less than 4.52, 4.19 and 5.02.
The compound `C=CCc1ccc(O)c(-c2ccc(O)c(CC=C)c2)c1` [HONOKIOL] gave a pEC50 in the test with Hepatitis C virus of 5.03. In addition, the pIC50 in test [2] is 4.23.
With `CNC(=O)c1cc(Oc2ccc(NC(=O)Nc3ccc(Cl)c(C(F)(F)F)c3)cc2)ccn1` [SORAFENIB], the pIC50 in test [1] is 5.49; in test [3] it was 5.70.
